Counter-ions that a name gives are not always drawn.
Each molecule was assayed against human PDGFRβ (Homo sapiens (Human), UniProt P09619) (assay: PDGFRβ kinase assay (PDGFRβ-HTRF)). Settings: 10 μM ATP; some mean values from multiple determinations.
Assay type: biochemical
Method in brief: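 GST-fused human PDGFRβ fragment (R561-L1106) from Sf9 cells was preincubated 15 min with compound in 50 mM HEPES pH 7.5, 10 mM MgCl2, 2.5 mM DTT, 0.01% Triton X-100; substrate was biotinylated poly-Glu,Tyr (4:1).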

Chain of human PDGFRβ (P09619 561-1106): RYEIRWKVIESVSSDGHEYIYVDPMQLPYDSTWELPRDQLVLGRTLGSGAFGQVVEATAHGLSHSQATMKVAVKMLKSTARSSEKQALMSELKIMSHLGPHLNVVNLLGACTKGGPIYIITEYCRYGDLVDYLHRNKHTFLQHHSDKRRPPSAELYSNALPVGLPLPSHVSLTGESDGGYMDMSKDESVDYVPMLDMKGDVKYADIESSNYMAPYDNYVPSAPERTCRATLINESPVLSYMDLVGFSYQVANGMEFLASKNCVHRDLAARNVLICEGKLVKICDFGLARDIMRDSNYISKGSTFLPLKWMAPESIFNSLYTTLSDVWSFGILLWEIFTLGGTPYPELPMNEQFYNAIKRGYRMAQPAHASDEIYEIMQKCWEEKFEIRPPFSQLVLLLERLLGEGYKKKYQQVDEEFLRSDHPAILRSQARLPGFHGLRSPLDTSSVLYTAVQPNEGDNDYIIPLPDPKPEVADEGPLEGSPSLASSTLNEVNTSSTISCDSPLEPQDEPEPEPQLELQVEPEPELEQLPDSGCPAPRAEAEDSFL

Structure (SMILES)	IC50 [nM]
Cc1ccc(O)cc1Nc1ccnc2c1C(=O)Nc1cc(CNc3ccc4[nH]cnc4c3)ccc1N2 [Example 104]	12.2
Cc1cc(F)c(Nc2ccnc3c2C(=O)Nc2cc(CN4CCCC(O)(c5ccccc5)C4)ccc2N3)cc1O (racemic) [Example 73, rac-4-[(2-Fluoro-5-hydroxy-4-methylphenyl)amino]-8-[(3-hydroxy-3-phenylpiperidin-1-yl)methyl]-6,11-dihydro-5H-pyrido[2,3-b][1,5]benzodiazepin-5-one]	1.98
Cc1ccc(O)cc1Nc1ccnc2c1C(=O)Nc1cc(CNCCN3CCC(C)CC3)ccc1N2 [Example 110]	3.29
Cc1ccc(O)cc1Nc1ccnc2c1C(=O)Nc1cc(CNCCN3CCOCC3)ccc1N2 [Example 18, 4-[(5-Hydroxy-2-methylphenyl)amino]-8-({[2-(morpholin-4-yl)ethyl]amino}methyl)-6,11-dihydro-5H-pyrido[2,3-b][1,5]benzodiazepin-5-one]	5.19
Cc1ccc(O)cc1Nc1ccnc2c1C(=O)Nc1cc(CNC3CCCCC3C)ccc1N2 (centres unmarked) [Example 124]	3.02
Cc1cc(F)c(Nc2ccnc3c2C(=O)Nc2cc(CN4CCC[C@H](N)C4)ccc2N3)cc1O [Example 219, 8-{[(3S)-3-Aminopiperidin-1-yl]methyl}-4-[(2-fluoro-5-hydroxy-4-methylphenyl)amino]-6,11-dihydro-5H-pyrido[2,3-b][1,5]benzodiazepin-5-one]	1.48
COc1cccc(CNCc2ccc3c(c2)NC(=O)c2c(Nc4cc(O)ccc4C)ccnc2N3)c1 [Example 96]	2.1
N#Cc1ccc2c(c1)NC(=O)c1c(Nc3ccc(O)c(O)c3)ccnc1N2 [Example 12, 4-[(3,4-Dihydroxyphenyl)amino]-5-oxo-6,11-dihydro-5H-pyrido[2,3-b][1,5]benzodiazepine-8-carbonitrile]	84.4
CCn1ccc(CNCc2ccc3c(c2)NC(=O)c2c(Nc4cc(O)ccc4C)ccnc2N3)n1 [Example 103]	3.46
Cc1cc(F)c(Nc2ccnc3c2C(=O)Nc2cc(C(=O)N4C[C@H](O)C[C@H]4CO)ccc2N3)cc1O [Example 160, 4-[(2-Fluoro-5-hydroxy-4-methylphenyl)amino]-8-{[(2S,4R)-4-hydroxy-2-(hydroxymethyl)pyrrolidin-1-yl]carbonyl}-6,11-dihydro-5H-pyrido[2,3-b][1,5]benzodiazepin-5-one]	7.25
CCOCCC(C)NCc1ccc2c(c1)NC(=O)c1c(Nc3cc(O)ccc3C)ccnc1N2 (centres unmarked) [Example 118]	4.02
Cc1cc(F)c(Nc2ccnc3c2C(=O)Nc2cc(CN[C@@H](CO)C(N)=O)ccc2N3)cc1O [Example 173, N^2-({4-[(2-Fluoro-5-hydroxy-4-methylphenyl)amino]-5-oxo-6,11-dihydro-5H-pyrido[2,3-b][1,5]benzodiazepin-8-yl}methyl)-L-serinamide]	4.41
O=C1Nc2cc(CN3CCC(O)CC3)ccc2Nc2nccc(Nc3cc(O)c(Cl)cc3F)c21 [Example 175, 4-[(4-Chloro-2-fluoro-5-hydroxyphenyl)amino]-8-[(4-hydroxypiperidin-1-yl)methyl]-6,11-dihydro-5H-pyrido[2,3-b][1,5]benzodiazepin-5-one]	1.26
Cc1ccc(O)cc1Nc1ccnc2c1C(=O)Nc1cc(CNCCN(C)C)ccc1N2 [Example 156]	3.31
Cc1ccc(O)cc1Nc1ccnc2c1C(=O)Nc1cc(CNCC(O)CO)ccc1N2 (centres unmarked) [Example 148]	1.52
Cc1ccc(O)cc1Nc1ccnc2c1C(=O)Nc1cc(CNCc3cccnc3)ccc1N2 [Example 146]	7.56
Cc1cc(F)c(Nc2ccnc3c2C(=O)Nc2cc(CNC4CC(F)(F)C4)ccc2N3)cc1O [Example 189, 8-{[(3,3-Difluorocyclobutyl)amino]methyl}-4-[(2-fluoro-5-hydroxy-4-methylphenyl)amino]-6,11-dihydro-5H-pyrido[2,3-b][1,5]benzodiazepin-5-one]	2.01
Cc1ccc(O)cc1Nc1ccnc2c1C(=O)Nc1cc(CNC(C)c3ccco3)ccc1N2 (centres unmarked) [Example 132]	2.89
N#Cc1ccc2c(c1)NC(=O)c1c(Nc3cc(O)c(F)c(F)c3)ccnc1N2 [Example 8, 4-[(3,4-Difluoro-5-hydroxyphenyl)amino]-5-oxo-6,11-dihydro-5H-pyrido[2,3-b][1,5]benzodiazepine-8-carbonitrile]	4.76
CC[C@@H](C)[C@@H](CO)NCc1ccc2c(c1)NC(=O)c1c(Nc3cc(O)c(C)cc3F)ccnc1N2 [Example 172, 4-[(2-Fluoro-5-hydroxy-4-methylphenyl)amino]-8-({[(2S,3R)-1-hydroxy-3-methylpentan-2-yl]amino}methyl)-6,11-dihydro-5H-pyrido[2,3-b][1,5]benzodiazepin-5-one]	4.11

Structure (SMILES)	IC50 [nM]
N#Cc1ccc2c(c1)NC(=O)c1c(Nc3ccc(Cl)c(O)c3)ccnc1N2 [Example 11, 4-[(4-Chloro-3-hydroxyphenyl)amino]-5-oxo-6,11-dihydro-5H-pyrido[2,3-b][1,5]benzodiazepine-8-carbonitrile]	4.03
Cc1cc(F)c(Nc2ccnc3c2C(=O)Nc2cc(C(=O)N[C@H]4CC[C@H](O)CC4)ccc2N3)cc1O [Example 180, 4-[(2-Fluoro-5-hydroxy-4-methylphenyl)amino]-N-(trans-4-hydroxycyclohexyl)-5-oxo-6,11-dihydro-5H-pyrido[2,3-b][1,5]benzodiazepine-8-carboxamide]	2.43
Cc1cc(F)c(Nc2ccnc3c2C(=O)Nc2cc(CN4CCC[C@@H](N)C4)ccc2N3)cc1O [Example 212, 8-{[(3R)-3-Aminopiperidin-1-yl]methyl}-4-[(2-fluoro-5-hydroxy-4-methylphenyl)amino]-6,11-dihydro-5H-pyrido[2,3-b][1,5]benzodiazepin-5-one]	0.829
Cc1cc(F)c(Nc2ccnc3c2C(=O)Nc2cc(CN(C)CCN(C)C)ccc2N3)cc1O [Example 203, 8-({[2-(Dimethylamino)ethyl](methyl)amino}methyl)-4-[(2-fluoro-5-hydroxy-4-methylphenyl)amino]-6,11-dihydro-5H-pyrido[2,3-b][1,5]benzodiazepin-5-one]	1.87
Cc1ccc(O)cc1Nc1ccnc2c1C(=O)Nc1cc(CNC3(C)CCS(=O)(=O)C3)ccc1N2 (centres unmarked) [Example 98]	5.17
Cc1ccc(O)cc1Nc1ccnc2c1C(=O)Nc1cc(CNC[C@H](C)c3ccccc3)ccc1N2 [Example 117]	3.46
Cc1cc(F)c(Nc2ccnc3c2C(=O)Nc2cc(CN4CCCC(C(N)=O)C4)ccc2N3)cc1O (racemic) [Example 57, rac-1-({4-[(2-Fluoro-5-hydroxy-4-methylphenyl)amino]-5-oxo-6,11-dihydro-5H-pyrido[2,3-b][1,5]benzodiazepin-8-yl}methyl)piperidine-3-carboxamide]	1.66
Cc1cc(F)c(Nc2ccnc3c2C(=O)Nc2cc(C(=O)N4CCCC(O)C4)ccc2N3)cc1O (racemic) [Example 82, rac-4-[(2-Fluoro-5-hydroxy-4-methylphenyl)amino]-8-[(3-hydroxypiperidin-1-yl)carbonyl]-6, 11-dihydro-5H-pyrido[2,3-b][1,5]benzodiazepin-5-one]	10.1
Cc1cc(F)c(Nc2ccnc3c2C(=O)Nc2cc(CNCCO)ccc2N3)cc1O [Example 167, 4-[(2-Fluoro-5-hydroxy-4-methylphenyl)amino]-8-{[(2-hydroxyethyl)amino]methyl}-6,11-dihydro-5H-pyrido[2,3-b][1,5]benzodiazepin-5-one]	1.31
Cc1cc(F)c(Nc2ccnc3c2C(=O)Nc2cc(CN[C@H]4C[C@H](C(=O)O)C4)ccc2N3)cc1O [Example 195, trans-3-[({4-[(2-Fluoro-5-hydroxy-4-methylphenyl)amino]-5-oxo-6,11-dihydro-5H-pyrido[2,3-b][1,5]benzodiazepin-8-yl}methyl)amino]cyclobutanecarboxylic acid]	1.56
Cc1ccc(O)cc1Nc1ccnc2c1C(=O)Nc1cc(CNCC(C)(C)N(C)C)ccc1N2 [Example 144]	7.72
CCC(CC)CNCc1ccc2c(c1)NC(=O)c1c(Nc3cc(O)ccc3C)ccnc1N2 [Example 93]	4.98
Cc1ccc(O)cc1Nc1ccnc2c1C(=O)Nc1cc(CNC(C)CN(C)C)ccc1N2 (centres unmarked) [Example 122]	3.24
Cc1ccc(O)cc1Nc1ccnc2c1C(=O)Nc1cc(CNCC3CCC(=O)N3C)ccc1N2 (centres unmarked) [Example 137]	1.68
Cc1ccc(O)cc1Nc1ccnc2c1C(=O)Nc1cc(CNC3CC3)ccc1N2 [Example 151]	3.71
CCC(CC)NCc1ccc2c(c1)NC(=O)c1c(Nc3cc(O)ccc3C)ccnc1N2 [Example 155]	2.33
CCNCc1ccc2c(c1)NC(=O)c1c(Nc3cc(O)ccc3C)ccnc1N2 [Example 25, 8-[(Ethylamino)methyl]-4-[(5-hydroxy-2-methylphenyl)amino]-6,11-dihydro-5H-pyrido[2,3-b][1,5]benzodiazepin-5-one]	3.25
Cc1ccc(O)cc1Nc1ccnc2c1C(=O)Nc1cc(CNCCN3CCN(C)CC3)ccc1N2 [Example 109]	3.55
Cc1cc(F)c(Nc2ccnc3c2C(=O)Nc2cc(CN4CCCC(O)CC4)ccc2N3)cc1O (racemic) [Example 62, rac-4-[(2-Fluoro-5-hydroxy-4-methylphenyl)amino]-8-[(4-hydroxyazepan-1-yl)methyl]-6,11-dihydro-5H-pyrido[2,3-b][1,5]benzodiazepin-5-one]	1.39
COCCOCCOCCOCCOCCOCCOCCOCCNCc1ccc2c(c1)NC(=O)c1c(Nc3cc(O)c(C)cc3F)ccnc1N2 [Example 185, 4-[(2-Fluoro-5-hydroxy-4-methylphenyl)amino]-8-(2,5,8,11,14,17,20,23-octaoxa-26-azaheptacosan-27-yl)-6,11-dihydro-5H-pyrido[2,3-b][1,5]benzodiazepin-5-one]	25

Same assay, conditions: 10 μM ATP; some mean values from multiple determinations; acetic acid salt

Structure (SMILES)	IC50 [nM]
Cc1cc(F)c(Nc2ccnc3c2C(=O)Nc2cc(CNC4CCCC4)ccc2N3)cc1O [Example 34, 8-[(Cyclopentylamino)methyl]-4-[(2-fluoro-5-hydroxy-4-methylphenyl)amino]-6,11-dihydro-5H-pyrido[2,3-b][1,5]benzodiazepin-5-one acetic acid salt]	5.06

Reference: US10047096B2, “Substituted pyridobenzodiazepinone-derivatives and use thereof” (Bayer Pharma Aktiengesellschaft, priority 2014, dated 2018)
